What was measured:
[1] = Elimination half life in human administered po; format: ADME; settings: read-out: LambdaZ (converted)
[2] = test system: Human immunodeficiency virus 1; experiment: Antiviral activity against HIV-1; format: functional, organism-based
[3] = Drug elimination in human urine assessed as unchanged drug administered po relative to control; format: ADME, organism-based; settings: read-out: Drug excretion
[4] = Oral bioavailability in human relative to control; format: ADME, organism-based; settings: in vivo

In the case of `C=C1[C@H](CO)[C@@H](O)C[C@@H]1n1cnc2c(=O)[nH]c(N)nc21.O` [ENTECAVIR], the half-life [1] is reported as 128 h, the EC50 [2] is reported as over 1000 nM and the dose excreted [3] is reported as 62%. The bioavailability [4] was 100%.

With `Nc1ccn([C@@H]2CS[C@H](CO)O2)c(=O)n1` [LAMIVUDINE] the EC50 [2] was 2 nM.
